Consider two compounds from EPA's ToxRefDB 2.

Each structure is given as a SMILES string.

Series [1] deals with rat. The following applies: Sub-acute repeat dose toxicity, Oral, Gavage/Intubation, dose end: 7 day, group: systemic.
The subject of series [2] is mouse. The following applies: Sub-acute repeat dose toxicity, Oral, Gavage/Intubation, dose end: 7 day, group: systemic.
Series [3] concerns mouse. The following applies: Subchronic oral toxicity in rodents, cd1, Gavage/Intubation, dose end: 13 week, group: systemic, systemic / clinical chemistry / alanine aminotransferase (alt/sgpt) / alanine aminotransferase (alt/sgpt) + systemic / clinical chemistry / ….
The mark [4] stands for this setting: systemic / pathology microscopic / adrenal gland / hypertrophy + systemic / pathology microscopic / kidney / regeneration + systemic / ….
[5] abbreviates: systemic / clinical chemistry / creatinine / creatinine + systemic / clinical chemistry / potassium / potassium + systemic / in life ….
Setting [6] is: systemic / organ weight / liver / absolute.

On to `CCc1nn(CCO)c(CC)c1Oc1cc(C#N)cc(C#N)c1` [Lersivirine], for which, in series [1] (setting [4]), the LOAEL (commonly the lowest dose or exposure tested at which an adverse effect was seen) is above 150 mg/kg/day and the NOAEL – broadly, the highest dose or exposure tested at which no adverse effect was seen – was at least 150 mg/kg/day. For the same compound, the NEL in series [1] (systemic / pathology microscopic / kidney / regeneration + systemic / pathology microscopic / adrenal gland / vacuolization + systemic / …) is below 35 mg/kg/day. Besides, in series [2] (setting [5]), the lowest-observed-adverse-effect level (LOAEL) is above 750 mg/kg/day and the NOAEL was at least 750 mg/kg/day. For the same compound, in series [2] (setting [6]), the LEL was determined as 70 mg/kg/day and the NEL is below 70 mg/kg/day.
On to `CCc1c(C(=O)NN2CCCCC2)nn(-c2ccc(Cl)cc2Cl)c1-c1ccc(Br)cc1` [Surinabant], for which, in series [3], the LEL amounted to 100 mg/kg/day, the lowest-observed-adverse-effect level (LOAEL) was above 1000 mg/kg/day, the NEL is below 100 mg/kg/day and the NOAEL is at least 1000 mg/kg/day.
